Results: ChEMBL document CHEMBL4028801, “A multifactorial approach to hepatobiliary transporter assessment enables improved therapeutic compound development” (Toxicol Sci, 2013)
Counter-ions that a name gives are not always drawn.

What was measured:
[1] = target: ATP-binding cassette sub-family C member 3 (Homo sapiens, UniProt O15438); assay: Inhibition of human MRP3 overexpressed in Sf9 insect cell membrane vesicles assessed as uptake of [3H]-estradiol-17beta-D-glucuronide in presence of ATP and GSH measured after 10 mins by membrane vesicle transport assay; format: ADME, cell-based
[2] = target: ATP-binding cassette sub-family C member 2 (Homo sapiens, UniProt Q92887); assay: Inhibition of human MRP2 overexpressed in Sf9 cell membrane vesicles assessed as uptake of [3H]-estradiol-17beta-D-glucuronide in presence of ATP and GSH measured after 20 mins by membrane vesicle transport assay
[3] = target: T1, ATP-binding cassette sub-family C member 4 (Homo sapiens, UniProt O15439); assay: Inhibition of human MRP4 overexpressed in Sf9 cell membrane vesicles assessed as uptake of [3H]-estradiol-17beta-D-glucuronide in presence of ATP and GSH measured after 20 mins by membrane vesicle transport assay; format: ADME, cell-based
T1 sequence (O15439 whole entry): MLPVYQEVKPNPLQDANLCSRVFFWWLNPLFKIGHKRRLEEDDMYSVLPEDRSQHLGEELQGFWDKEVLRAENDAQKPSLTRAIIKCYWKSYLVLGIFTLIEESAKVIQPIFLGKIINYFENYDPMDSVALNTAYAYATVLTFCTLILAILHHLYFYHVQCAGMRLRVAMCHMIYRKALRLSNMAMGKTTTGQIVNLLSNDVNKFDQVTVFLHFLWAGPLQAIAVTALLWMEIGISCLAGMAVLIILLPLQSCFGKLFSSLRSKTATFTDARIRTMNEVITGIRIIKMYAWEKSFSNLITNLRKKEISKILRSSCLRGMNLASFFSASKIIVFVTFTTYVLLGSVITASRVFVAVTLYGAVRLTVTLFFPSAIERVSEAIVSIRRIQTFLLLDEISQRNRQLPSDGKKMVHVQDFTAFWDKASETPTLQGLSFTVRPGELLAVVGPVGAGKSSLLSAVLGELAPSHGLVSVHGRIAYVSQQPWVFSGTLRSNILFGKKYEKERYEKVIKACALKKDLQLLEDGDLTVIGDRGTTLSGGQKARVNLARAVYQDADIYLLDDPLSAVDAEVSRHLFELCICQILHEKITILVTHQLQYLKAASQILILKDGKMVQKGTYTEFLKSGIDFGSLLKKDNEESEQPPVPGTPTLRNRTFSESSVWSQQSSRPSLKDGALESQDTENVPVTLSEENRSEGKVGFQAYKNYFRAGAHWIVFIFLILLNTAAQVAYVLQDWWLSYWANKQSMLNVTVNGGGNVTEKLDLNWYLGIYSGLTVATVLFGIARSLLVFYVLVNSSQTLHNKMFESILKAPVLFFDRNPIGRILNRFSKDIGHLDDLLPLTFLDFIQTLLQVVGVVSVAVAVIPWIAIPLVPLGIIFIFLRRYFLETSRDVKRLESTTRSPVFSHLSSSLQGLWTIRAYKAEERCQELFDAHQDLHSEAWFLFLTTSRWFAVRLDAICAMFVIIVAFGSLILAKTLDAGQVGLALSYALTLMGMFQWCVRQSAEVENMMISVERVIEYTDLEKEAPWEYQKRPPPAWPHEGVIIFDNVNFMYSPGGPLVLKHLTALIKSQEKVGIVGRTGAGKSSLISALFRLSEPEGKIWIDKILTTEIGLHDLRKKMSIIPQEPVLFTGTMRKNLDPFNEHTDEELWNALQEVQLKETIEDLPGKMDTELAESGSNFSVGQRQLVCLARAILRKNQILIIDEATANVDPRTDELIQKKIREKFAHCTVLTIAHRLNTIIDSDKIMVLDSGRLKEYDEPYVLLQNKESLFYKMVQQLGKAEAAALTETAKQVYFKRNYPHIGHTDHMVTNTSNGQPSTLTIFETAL

[4] = target: Bile salt export pump (Homo sapiens, UniProt O95342); assay: Inhibition of human BSEP overexpressed in Sf9 cell membrane vesicles assessed as uptake of [3H]-taurocholate in presence of ATP measured after 15 to 20 mins by membrane vesicle transport assay; format: ADME, cell-based
Sequence of Bile salt export pump (O95342 whole entry): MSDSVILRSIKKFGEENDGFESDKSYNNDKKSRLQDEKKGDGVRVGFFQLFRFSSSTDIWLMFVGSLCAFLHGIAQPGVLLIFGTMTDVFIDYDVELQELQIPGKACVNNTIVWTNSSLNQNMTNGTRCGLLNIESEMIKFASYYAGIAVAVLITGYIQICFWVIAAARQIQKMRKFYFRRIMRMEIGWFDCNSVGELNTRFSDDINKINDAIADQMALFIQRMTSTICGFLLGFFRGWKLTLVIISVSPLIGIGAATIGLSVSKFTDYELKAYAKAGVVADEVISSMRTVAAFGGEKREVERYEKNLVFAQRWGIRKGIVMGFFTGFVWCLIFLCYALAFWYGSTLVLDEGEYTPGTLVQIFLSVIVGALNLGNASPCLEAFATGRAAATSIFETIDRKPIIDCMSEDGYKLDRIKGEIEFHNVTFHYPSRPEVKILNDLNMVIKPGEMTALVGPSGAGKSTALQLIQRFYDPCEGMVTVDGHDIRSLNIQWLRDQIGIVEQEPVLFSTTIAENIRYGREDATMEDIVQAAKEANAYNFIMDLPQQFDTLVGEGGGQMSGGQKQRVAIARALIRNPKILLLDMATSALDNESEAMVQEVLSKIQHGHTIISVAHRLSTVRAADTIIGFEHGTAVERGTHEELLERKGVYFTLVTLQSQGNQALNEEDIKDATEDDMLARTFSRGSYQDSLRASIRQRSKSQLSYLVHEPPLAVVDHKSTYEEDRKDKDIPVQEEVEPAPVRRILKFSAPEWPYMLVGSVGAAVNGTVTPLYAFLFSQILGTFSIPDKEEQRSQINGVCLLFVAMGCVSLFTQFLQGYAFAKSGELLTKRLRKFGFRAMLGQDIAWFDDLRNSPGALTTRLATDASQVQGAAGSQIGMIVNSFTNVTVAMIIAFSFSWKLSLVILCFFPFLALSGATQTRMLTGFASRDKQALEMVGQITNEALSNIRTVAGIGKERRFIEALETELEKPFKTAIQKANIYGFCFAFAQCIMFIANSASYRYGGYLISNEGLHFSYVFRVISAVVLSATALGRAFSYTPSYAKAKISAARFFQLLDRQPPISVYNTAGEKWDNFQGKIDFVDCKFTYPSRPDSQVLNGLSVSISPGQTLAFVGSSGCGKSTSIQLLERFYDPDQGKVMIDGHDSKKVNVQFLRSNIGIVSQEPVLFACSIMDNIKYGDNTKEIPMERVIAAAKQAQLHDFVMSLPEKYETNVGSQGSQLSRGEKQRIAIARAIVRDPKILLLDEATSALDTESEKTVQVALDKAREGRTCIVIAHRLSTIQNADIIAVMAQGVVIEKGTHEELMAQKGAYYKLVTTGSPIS

Sequence of ATP-binding cassette sub-family C member 3 (O15438 whole entry): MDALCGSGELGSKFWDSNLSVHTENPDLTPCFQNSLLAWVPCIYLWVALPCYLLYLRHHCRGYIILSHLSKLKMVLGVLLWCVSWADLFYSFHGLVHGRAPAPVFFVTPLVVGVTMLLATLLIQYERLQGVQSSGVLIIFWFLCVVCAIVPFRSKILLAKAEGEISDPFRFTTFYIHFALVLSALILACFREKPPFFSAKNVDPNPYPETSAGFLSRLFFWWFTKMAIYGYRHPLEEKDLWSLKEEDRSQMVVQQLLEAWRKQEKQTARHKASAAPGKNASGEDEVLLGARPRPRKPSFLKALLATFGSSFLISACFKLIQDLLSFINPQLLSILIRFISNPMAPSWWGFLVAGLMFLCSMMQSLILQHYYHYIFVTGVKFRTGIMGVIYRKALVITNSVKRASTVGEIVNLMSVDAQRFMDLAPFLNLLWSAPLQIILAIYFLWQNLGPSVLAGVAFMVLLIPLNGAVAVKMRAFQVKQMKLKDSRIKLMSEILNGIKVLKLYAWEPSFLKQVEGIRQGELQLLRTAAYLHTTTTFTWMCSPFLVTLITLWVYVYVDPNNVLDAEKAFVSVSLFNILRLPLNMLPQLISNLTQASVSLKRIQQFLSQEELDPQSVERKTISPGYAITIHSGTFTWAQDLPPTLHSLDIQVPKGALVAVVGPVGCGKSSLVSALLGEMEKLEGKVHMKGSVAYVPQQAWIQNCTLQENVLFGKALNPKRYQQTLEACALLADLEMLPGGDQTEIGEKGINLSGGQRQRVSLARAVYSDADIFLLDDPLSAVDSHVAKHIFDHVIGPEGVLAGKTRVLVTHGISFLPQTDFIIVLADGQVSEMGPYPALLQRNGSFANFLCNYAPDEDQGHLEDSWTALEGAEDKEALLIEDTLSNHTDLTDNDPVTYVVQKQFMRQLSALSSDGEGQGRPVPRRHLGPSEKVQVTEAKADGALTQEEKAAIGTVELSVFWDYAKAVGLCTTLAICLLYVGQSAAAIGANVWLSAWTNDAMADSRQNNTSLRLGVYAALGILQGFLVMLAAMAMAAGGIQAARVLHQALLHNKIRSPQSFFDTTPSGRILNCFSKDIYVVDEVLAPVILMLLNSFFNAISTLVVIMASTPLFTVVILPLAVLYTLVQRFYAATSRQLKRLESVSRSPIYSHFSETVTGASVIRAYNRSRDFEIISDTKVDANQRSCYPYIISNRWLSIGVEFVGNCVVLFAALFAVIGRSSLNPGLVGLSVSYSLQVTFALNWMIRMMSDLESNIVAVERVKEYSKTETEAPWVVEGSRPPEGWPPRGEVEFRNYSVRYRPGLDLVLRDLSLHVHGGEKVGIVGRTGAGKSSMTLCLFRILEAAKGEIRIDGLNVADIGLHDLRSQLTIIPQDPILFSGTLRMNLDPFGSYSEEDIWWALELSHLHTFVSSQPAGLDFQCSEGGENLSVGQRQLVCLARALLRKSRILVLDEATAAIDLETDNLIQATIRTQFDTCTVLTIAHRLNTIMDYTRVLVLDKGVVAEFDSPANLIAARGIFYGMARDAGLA
Sequence of ATP-binding cassette sub-family C member 2 (Q92887 whole entry): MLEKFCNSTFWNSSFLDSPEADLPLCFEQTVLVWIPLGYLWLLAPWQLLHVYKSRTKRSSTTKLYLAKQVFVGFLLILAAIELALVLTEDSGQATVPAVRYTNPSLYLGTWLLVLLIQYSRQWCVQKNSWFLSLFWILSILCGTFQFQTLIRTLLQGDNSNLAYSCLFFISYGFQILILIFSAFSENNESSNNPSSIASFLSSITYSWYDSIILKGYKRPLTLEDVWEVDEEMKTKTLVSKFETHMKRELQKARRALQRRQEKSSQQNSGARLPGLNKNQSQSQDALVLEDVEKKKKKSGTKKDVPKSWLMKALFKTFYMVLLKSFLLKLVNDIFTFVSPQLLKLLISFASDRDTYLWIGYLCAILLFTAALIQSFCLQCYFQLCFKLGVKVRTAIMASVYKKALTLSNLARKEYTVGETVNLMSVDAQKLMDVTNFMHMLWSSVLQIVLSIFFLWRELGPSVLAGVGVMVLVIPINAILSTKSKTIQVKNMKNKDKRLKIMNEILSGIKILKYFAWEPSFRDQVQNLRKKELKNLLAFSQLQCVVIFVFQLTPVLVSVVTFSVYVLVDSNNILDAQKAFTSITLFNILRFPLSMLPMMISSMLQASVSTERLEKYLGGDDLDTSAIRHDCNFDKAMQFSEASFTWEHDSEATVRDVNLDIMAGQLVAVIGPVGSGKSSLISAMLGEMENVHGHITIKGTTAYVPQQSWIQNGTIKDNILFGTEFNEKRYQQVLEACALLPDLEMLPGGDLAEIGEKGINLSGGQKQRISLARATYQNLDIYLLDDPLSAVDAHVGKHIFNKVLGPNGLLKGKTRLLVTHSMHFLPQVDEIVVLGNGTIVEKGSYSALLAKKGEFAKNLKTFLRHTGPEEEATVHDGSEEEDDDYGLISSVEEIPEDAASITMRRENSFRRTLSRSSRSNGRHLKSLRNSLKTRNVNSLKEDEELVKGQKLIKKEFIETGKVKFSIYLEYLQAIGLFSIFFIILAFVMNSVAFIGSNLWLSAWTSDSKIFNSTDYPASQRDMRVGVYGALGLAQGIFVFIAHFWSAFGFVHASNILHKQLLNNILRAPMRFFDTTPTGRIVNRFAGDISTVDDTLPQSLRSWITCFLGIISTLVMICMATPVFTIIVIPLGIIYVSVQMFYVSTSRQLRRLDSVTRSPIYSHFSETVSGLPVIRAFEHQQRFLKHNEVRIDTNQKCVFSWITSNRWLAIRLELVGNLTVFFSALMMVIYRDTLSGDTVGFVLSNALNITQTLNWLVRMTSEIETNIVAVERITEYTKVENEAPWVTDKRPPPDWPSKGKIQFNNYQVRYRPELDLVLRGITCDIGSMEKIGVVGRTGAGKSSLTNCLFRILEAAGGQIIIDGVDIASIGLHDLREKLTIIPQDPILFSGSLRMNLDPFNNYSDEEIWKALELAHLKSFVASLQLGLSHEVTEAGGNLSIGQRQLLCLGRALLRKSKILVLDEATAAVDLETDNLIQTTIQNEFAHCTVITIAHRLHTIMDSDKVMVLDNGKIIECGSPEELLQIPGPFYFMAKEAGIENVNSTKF

Compound | IC50 [1] [µM] | IC50 [2] [µM] | IC50 [3] [µM] | IC50 [4] [µM]
CN1CCOC(c2ccccc2)c2ccccc2C1 (stereo unspecified) [NEFOPAM] | > 133 | > 133 | > 133 | > 133
OCCN1CCN(CCCN2c3ccccc3Sc3ccc(Cl)cc32)CC1 [PERPHENAZINE] | > 133 | > 133 | > 133 | > 133
O=C(O)P(=O)(O)O [FOSCARNET SODIUM] | > 133 | > 133 | > 133 | > 133
CCOC(=O)O[C@]1(C(=O)OCCl)CC[C@H]2[C@@H]3CCC4=CC(=O)C=C[C@]4(C)[C@H]3[C@@H](O)C[C@@]21C [LOTEPREDNOL ETABONATE] | 15.5 | > 133 | > 133 | 40.4
C[C@@H](O[C@H]1OCCN(Cc2n[nH]c(=O)[nH]2)[C@H]1c1ccc(F)cc1)c1cc(C(F)(F)F)cc(C(F)(F)F)c1 [APREPITANT] | > 133 | > 133 | > 133 | > 133
Cc1cnc(C(=O)O)c[n+]1[O-] [ACIPIMOX] | > 133 | > 133 | > 133 | > 133
O=[N+]([O-])C(Br)(CO)CO [BRONOPOL] | > 133 | > 133 | > 133 | > 133
Fc1ccc([C@@H]2CCNC[C@H]2COc2ccc3c(c2)OCO3)cc1 [PAROXETINE HYDROCHLORIDE] | > 133 | > 133 | > 133 | > 133
O=c1[nH]cc(F)c(=O)[nH]1 [FLUOROURACIL] | > 133 | > 133 | > 133 | > 133
CO/N=C(\C(=O)N[C@@H]1C(=O)N2C(C(=O)O)=C(COC(C)=O)CS[C@H]12)c1csc(N)n1 [CEFOTAXIME SODIUM] | > 133 | > 133 | 24 | > 133
Cc1cccc(Nc2ccccc2C(=O)O)c1C [MEFENAMIC ACID] | > 133 | > 133 | > 133 | > 133
c1ccc(-c2ccc(C(c3ccccc3)n3ccnc3)cc2)cc1 (stereo unspecified) [BIFONAZOLE] | > 133 | > 133 | > 133 | 27.1
CC(=O)Oc1ccccc1C(=O)Nc1ncc([N+](=O)[O-])s1 [NITAZOXANIDE] | > 133 | > 133 | > 133 | > 133
CC[C@@]1(O)C(=O)OCc2c1cc1n(c2=O)Cc2cc3c([N+](=O)[O-])cccc3nc2-1 [RUBITECAN] | 10.2 | 60.5 | 5.1 | > 133
CC(=O)O[C@H]1C[C@@H]2CC[C@@H]3[C@H](CC[C@@]4(C)[C@H]3C[C@H]([N+]3(C)CCCCC3)[C@@H]4OC(C)=O)[C@@]2(C)C[C@@H]1N1CCCCC1 [VECURONIUM BROMIDE] | > 133 | > 133 | > 133 | > 133
CCN(CC)CCNC(=O)c1cc(Cl)c(N)cc1OC [METOCLOPRAMIDE] | > 133 | > 133 | > 133 | > 133
C#CCN[C@@H]1CCc2ccccc21 [RASAGILINE MESYLATE] | > 133 | > 133 | > 133 | > 133
C=C[C@H]1C[N@@]2CC[C@H]1C[C@H]2[C@H](O)c1ccnc2ccc(OC)cc12 [QUININE] | > 133 | > 133 | > 133 | > 133
CCn1cc(C(=O)O)c(=O)c2cc(F)c(N3CCNCC3)nc21 [ENOXACIN] | > 133 | > 133 | > 133 | > 133
CCOC(=O)[N-]c1cn(N2CCOCC2)n[o+]1 [MOLSIDOMINE] | > 133 | > 133 | > 133 | > 133

Compound | IC50 [1] [µM] | IC50 [2] [µM] | IC50 [3] [µM] | IC50 [4] [µM]
C=CC1=C(C(=O)O)N2C(=O)[C@@H](NC(=O)/C(=N\O)c3csc(N)n3)[C@H]2SC1 | > 133 | > 133 | 11.6 | > 133
C[C@H]1[C@H](OC(=O)CCC(=O)O)O[C@@H]2O[C@@]3(C)CC[C@H]4[C@H](C)CC[C@@H]1[C@@]24OO3 [ARTESUNATE] | > 133 | > 133 | > 133 | > 133
C[C@H]1C[C@H]2[C@@H]3CCC4=CC(=O)C=C[C@]4(C)[C@@]3(F)[C@@H](O)C[C@]2(C)[C@@]1(O)C(=O)CO [BETAMETHASONE] | > 133 | > 133 | > 133 | > 133
Nc1nc(F)nc2c1ncn2[C@@H]1O[C@H](COP(=O)(O)O)[C@@H](O)[C@@H]1O [FLUDARABINE PHOSPHATE] | > 133 | > 133 | > 133 | > 133
C[C@H](CS)C(=O)N1CCC[C@H]1C(=O)O [CAPTOPRIL] | > 133 | > 133 | > 133 | > 133
COc1cc2c3cc1Oc1cc(ccc1O)C[C@@H]1c4c(cc(OC)c(O)c4Oc4ccc(cc4)C[C@@H]3N(C)CC2)CC[N+]1(C)C [TUBOCURARINE] | > 133 | > 133 | 9.6 | > 133
Cc1onc(-c2ccccc2)c1-c1ccc(S(N)(=O)=O)cc1 [VALDECOXIB] | > 133 | > 133 | > 133 | > 133
O=C1NCCN1CCN1CCC(c2cn(-c3ccc(F)cc3)c3ccc(Cl)cc23)CC1 [SERTINDOLE] | > 133 | > 133 | > 133 | 82.7
Nc1c2c(nc3ccccc13)CCCC2 [TACRINE] | > 133 | > 133 | 23.7 | > 133
NS(=O)(=O)c1cc(C2(O)NC(=O)c3ccccc32)ccc1Cl (stereo unspecified) [CHLORTHALIDONE] | > 133 | > 133 | > 133 | > 133
NC[C@H]1O[C@H](O[C@H]2[C@H](O)[C@@H](O[C@H]3O[C@H](CO)[C@@H](O)[C@H](N)[C@H]3O)[C@H](N)C[C@@H]2N)[C@H](N)C[C@@H]1O [TOBRAMYCIN] | > 133 | > 133 | > 133 | > 133
CC(C)(C)NC[C@H](O)COc1nsnc1N1CCOCC1 [TIMOLOL] | > 133 | > 133 | > 133 | > 133
CCN(CC)CCNC(=O)c1cc(Br)c(N)cc1OC [BROMOPRIDE] | > 133 | > 133 | > 133 | > 133
Cc1cccc(N(C)C(=S)Oc2ccc3ccccc3c2)c1 [TOLNAFTATE] | > 133 | > 133 | > 133 | > 133
CCN[C@H]1CN(CCCOC)S(=O)(=O)c2sc(S(N)(=O)=O)cc21 [BRINZOLAMIDE] | > 133 | > 133 | > 133 | > 133
CC(=O)CC(c1ccccc1)c1c(O)c2ccccc2oc1=O (stereo unspecified) [WARFARIN SODIUM] | > 133 | > 133 | > 133 | > 133
Nc1nc(Cl)nc2c1ncn2[C@H]1C[C@H](O)[C@@H](CO)O1 [CLADRIBINE] | > 133 | > 133 | > 133 | > 133
NS(=O)(=O)c1cc2c(cc1C(F)(F)F)NCNS2(=O)=O [HYDROFLUMETHIAZIDE] | > 133 | > 133 | > 133 | > 133
CC(C)(C)c1ccc(C(=O)CCCN2CCC(OC(c3ccccc3)c3ccccc3)CC2)cc1 [EBASTINE] | > 133 | > 133 | > 133 | > 133
